# Data from BindingDB's records for doi:10.3109/14756366.2011.604851 (Shandong University, 2012).
# How the values were obtained:
# Gag-Pol polyprotein [1] = molecular target: T1, Gag-Pol polyprotein (Human immunodeficiency virus type 1 group M subtype B (isolate HXB2), UniProt P04585); test: 3'-P Inhibitory Assay
# Method: Cleavage of a dinucleotide from each 3'-end of viral cDNA. All biological assays were performed essentially as previously described [Dayam et al., J. Med. Chem., 51:1136-1144].
# Gag-Pol polyprotein [2] = molecular target: T1, Gag-Pol polyprotein; test: ST Inhibitory Assay
# Method: Insertion of two newly processed 3'-viral DNA ends into the host-cell chromosome. All biological assays were performed essentially as previously described [Dayam et al., J. Med. Chem., 51:1136-1144].
SMILES,IC50 (Gag-Pol polyprotein [1]),IC50 (Gag-Pol polyprotein [2])
"CC(=O)Oc1ccc(/C=C/C(=O)Nc2ccc(S(=O)(=O)Nc3ccc(Cl)c(Cl)c3)cc2)cc1OC(C)=O [(E)-3-(3,4-Diacetoxyphenyl)-N-(4-(3,4-Dichlorophenylsulfamoyl)phenyl)acrylamide (10h)]",75 µM,7 µM
"CC(=O)Oc1ccc(/C=C/C(=O)Nc2ccc(S(=O)(=O)Nc3ccc(F)c(F)c3)cc2)cc1OC(C)=O [(E)-3-(3,4-Diacetoxyphenyl)-N-(4-(3,4-Difluorophenylsulfamoyl)phenyl)acrylamide (10b)]",60 µM,11 µM
"CC(=O)Oc1ccc(/C=C/C(=O)Nc2ccc(S(=O)(=O)Nc3cc(C)cc(C)c3)cc2)cc1OC(C)=O [(E)-3-(3,4-Diacetoxyphenyl)-N-(4-(3,5-Dimethylphenylsulfamoyl)phenyl)acrylamide (10k)]",80 µM,16 µM
"CC(=O)Oc1ccc(/C=C/C(=O)Nc2ccc(S(=O)(=O)Nc3cccc(Cl)c3F)cc2)cc1OC(C)=O [(E)-3-(3,4-Diacetoxyphenyl)-N-(4-(3-chloro-2-fluorophenylsulfamoyl)phenyl)acrylamide (10l)]",50 µM,13 µM
"O=C(/C=C/c1ccc(O)c(O)c1)Nc1ccc(S(=O)(=O)Nc2ccccc2Br)cc1 [(E)-3-(3,4-Dihydroxyphenyl)-N-(4-(2-Bromophenylsulfamoyl)phenyl)acrylamide (11g)]",11 µM,9 µM
"O=C(/C=C/c1ccc(O)c(O)c1)Nc1ccc(S(=O)(=O)Nc2ccc(Cl)c(Cl)c2)cc1 [(E)-3-(3,4-Dihydroxyphenyl)-N-(4-(3,4-Dichlorophenylsulfamoyl)phenyl)acrylamide (11h)]",17 µM,6 µM
"O=C(/C=C/c1ccc(O)c(O)c1)Nc1ccc(S(=O)(=O)Nc2ccc(F)c(F)c2)cc1 [(E)-3-(3,4-Dihydroxyphenyl)-N-(4-(3,4-Difluorophenylsulfamoyl)phenyl)acrylamide (11b)]",11 µM,6 µM
"Cc1cc(C)cc(NS(=O)(=O)c2ccc(NC(=O)/C=C/c3ccc(O)c(O)c3)cc2)c1 [(E)-3-(3,4-Dihydroxyphenyl)-N-(4-(3,5-Dimethylphenylsulfamoyl)phenyl)acrylamide (11k)]",5 µM,4 µM
"O=C(/C=C/c1ccc(O)c(O)c1)Nc1ccc(S(=O)(=O)Nc2cccc(Br)c2)cc1 [(E)-3-(3,4-Dihydroxyphenyl)-N-(4-(3-Bromophenylsulfamoyl)phenyl)acrylamide (11f)]",49 µM,22 µM
"O=C(/C=C/c1ccc(O)c(O)c1)Nc1ccc(S(=O)(=O)Nc2ccc(F)c(Br)c2)cc1 [(E)-3-(3,4-Dihydroxyphenyl)-N-(4-(3-bromo-4-fluorophenylsulfamoyl)phenyl)acrylamide (11u)]",8 µM,4 µM
"O=C(/C=C/c1ccc(O)c(O)c1)Nc1ccc(S(=O)(=O)Nc2cccc(Cl)c2F)cc1 [(E)-3-(3,4-Dihydroxyphenyl)-N-(4-(3-chloro-2-fluorophenylsulfamoyl)phenyl)acrylamide (11l)]",22 µM,14 µM
"O=C(/C=C/c1ccc(O)c(O)c1)Nc1ccc(S(=O)(=O)Nc2ccc(F)c(Cl)c2)cc1 [(E)-3-(3,4-Dihydroxyphenyl)-N-(4-(3-chloro-4-fluorophenylsulfamoyl)phenyl)acrylamide (11v)]",8 µM,4 µM
"O=C(/C=C/c1ccc(O)c(O)c1)Nc1ccc(S(=O)(=O)Nc2ccc(Br)cc2)cc1 [(E)-3-(3,4-Dihydroxyphenyl)-N-(4-(4-Bromophenylsulfamoyl)phenyl)acrylamide (11e)]",35 µM,8 µM
"CCCCc1ccc(NS(=O)(=O)c2ccc(NC(=O)/C=C/c3ccc(O)c(O)c3)cc2)cc1 [(E)-3-(3,4-Dihydroxyphenyl)-N-(4-(4-Butylphenylsulfamoyl)phenyl)acrylamide (11i)]",25 µM,7 µM
"CCOc1ccc(NS(=O)(=O)c2ccc(NC(=O)/C=C/c3ccc(O)c(O)c3)cc2)cc1 [(E)-3-(3,4-Dihydroxyphenyl)-N-(4-(4-Ethoxylphenylsulfamoyl)phenyl)acrylamide (11j)]",35 µM,9 µM
"O=C(/C=C/c1ccc(O)c(O)c1)Nc1ccc(S(=O)(=O)NCc2ccc(F)cc2)cc1 [(E)-3-(3,4-Dihydroxyphenyl)-N-(4-(4-Fluorobenzylsulfamoyl)phenyl)acrylamide (11d)]",24 µM,9 µM
"O=C(/C=C/c1ccc(O)c(O)c1)Nc1ccc(S(=O)(=O)NCCc2ccc(F)cc2)cc1 [(E)-3-(3,4-Dihydroxyphenyl)-N-(4-(4-Fluorophenethylsulfamoyl)phenyl)acrylamide (11t)]",14 µM,10 µM
"O=C(/C=C/c1ccc(O)c(O)c1)Nc1ccc(S(=O)(=O)Nc2ccc(F)cc2)cc1 [(E)-3-(3,4-Dihydroxyphenyl)-N-(4-(4-Fluorophenylsulfamoyl)phenyl)acrylamide (11a)]",8 µM,5 µM
"O=C(/C=C/c1ccc(O)c(O)c1)Nc1ccc(S(=O)(=O)Nc2ccccc2)cc1 [(E)-3-(3,4-Dihydroxyphenyl)-N-(4-phenylsulfamoylphenyl)acrylamide (11m)]",16 µM,12 µM
"CC(=O)Oc1cc(C(=O)Nc2ccc(S(=O)(=O)Nc3ccccc3Br)cc2)cc(OC(C)=O)c1OC(C)=O [N-(4-(2-Bromophenylsulfamoyl)phenyl)-3,4,5-triacetoxybenzamide (8g)]",12 µM,3 µM
O=C(Nc1ccc(S(=O)(=O)Nc2ccccc2Br)cc1)c1cc(O)c(O)c(O)c1 [N-(4-(2-Bromophenylsulfamoyl)phenyl)galloylamide (9g)],5 µM,1.4 µM
"CC(=O)Oc1cc(C(=O)Nc2ccc(S(=O)(=O)Nc3ccccc3C)cc2)cc(OC(C)=O)c1OC(C)=O [N-(4-(2-Methylphenylsulfamoyl)phenyl)-3,4,5-triacetoxybenzamide (8s)]",> 10 µM,1.6 µM
Cc1ccccc1NS(=O)(=O)c1ccc(NC(=O)c2cc(O)c(O)c(O)c2)cc1 [N-(4-(2-Methylphenylsulfamoyl)phenyl)galloylamide (9s)],7 µM,2 µM
"O=C(Nc1ccc(S(=O)(=O)Nc2ccc(Cl)c(Cl)c2)cc1)c1cc(O)c(O)c(O)c1 [N-(4-(3,4-Dichlorophenylsulfamoyl)phenyl)galloylamide (9h)]",5 µM,1.7 µM
"Cc1ccc(NS(=O)(=O)c2ccc(NC(=O)c3cc(O)c(O)c(O)c3)cc2)cc1C [N-(4-(3,4-Dimethylphenylsulfamoyl)phenyl)galloylamide (9p)]",8 µM,8 µM
"Cc1cc(C)cc(NS(=O)(=O)c2ccc(NC(=O)c3cc(O)c(O)c(O)c3)cc2)c1 [N-(4-(3,5-Dimethylphenylsulfamoyl)phenyl)galloylamide (9k)]",8 µM,2.5 µM
"O=C(Nc1ccc(S(=O)(=O)Nc2cccc(Br)c2)cc1)c1ccc(O)c(O)c1 [N-(4-(3-Bromophenylsulfamoyl)phenyl)3,4-dihydroxybenzamide (11x)]",45 µM,15 µM
O=C(Nc1ccc(S(=O)(=O)Nc2cccc(Br)c2)cc1)c1cc(O)c(O)c(O)c1 [N-(4-(3-Bromophenylsulfamoyl)phenyl)galloylamide (9f)],2 µM,0.7 µM
